{"source": "ChEMBL document CHEMBL1201862", "about": "“PubChem BioAssay data set” (2004)", "test_in_all_cases": "NCI tumour cell line growth inhibition, 48 h", "key": {"[1]": {"system": "RXF 393"}, "[2]": {"system": "EKVX"}, "[3]": {"system": "NCI-H460"}, "[4]": {"system": "SW-620"}, "[5]": {"system": "LOX IMVI"}, "[6]": {"system": "SF-268"}, "[7]": {"system": "Hs-578T"}, "[8]": {"system": "SK-MEL-2"}, "[9]": {"system": "CAKI-1"}, "[10]": {"system": "MOLT-4"}, "[11]": {"system": "OVCAR-4"}, "[12]": {"system": "OVCAR-5"}, "[13]": {"system": "HCC 2998"}, "[14]": {"system": "786-0"}, "[15]": {"system": "OVCAR-3"}, "[16]": {"system": "A549"}, "[17]": {"system": "SF-539"}, "[18]": {"system": "NCI-H226"}, "[19]": {"system": "KM12"}, "[20]": {"system": "SK-MEL-5"}, "[21]": {"system": "COLO 205"}, "[22]": {"system": "T47D"}, "[23]": {"system": "SN12C"}, "[24]": {"system": "HL-60"}, "[25]": {"system": "MDA-MB-231"}, "[26]": {"system": "SK-OV-3"}, "[27]": {"system": "UACC-62"}, "[28]": {"system": "DU-145"}, "[29]": {"system": "NCI-H23"}, "[30]": {"system": "A498"}, "[31]": {"system": "HCT-116"}, "[32]": {"system": "SR"}, "[33]": {"system": "Malme-3M"}, "[34]": {"system": "ACHN"}, "[35]": {"system": "HOP-62"}, "[36]": {"system": "K562"}, "[37]": {"system": "HT-29"}, "[38]": {"system": "SF-295"}, "[39]": {"system": "U-251"}, "[40]": {"system": "SK-MEL-28"}, "[41]": {"system": "PC-3"}, "[42]": {"system": "UACC-257"}, "[43]": {"system": "MDA-MB-435"}, "[44]": {"system": "MCF7"}, "[45]": {"system": "SNB-19"}, "[46]": {"system": "NCI-H522"}, "[47]": {"system": "NCI/ADR-RES"}, "[48]": {"system": "OVCAR-8"}, "[49]": {"system": "IGROV-1"}, "[50]": {"system": "HCT-15"}, "[51]": {"system": "BT-549"}, "[52]": {"system": "RPMI-8226"}, "[53]": {"system": "TK-10"}, "[54]": {"system": "M14"}, "[55]": {"system": "MDA-N"}}, "note": "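Each compound was tested at five concentrations against cells in 96-well plates for 48 hours. The concentration for 50% growth inhibition is given as GI50.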 Calls of active or inactive are those of the source. Rule as the data show it: active = GI50 up to about 1.1 µM and inactive = higher."}
{"smiles": "COc1ccc(N2C(=O)C3c4[nH]c5ccc(OCc6ccccc6)cc5c4C4CCC(C(C)(C)C)CC4C3C2=O)cc1", "note": "(stereo not given)", "values": [{"measurement": "GI50", "setting": "[1]", "result": "> 100 µM (inactive)"}, {"measurement": "GI50", "setting": "[2]", "result": "> 100 µM (inactive)"}, {"measurement": "GI50", "setting": "[3]", "result": "> 100 µM (inactive)"}, {"measurement": "GI50", "setting": "[4]", "result": "94.6 µM (inactive)"}, {"measurement": "GI50", "setting": "[5]", "result": "> 100 µM (inactive)"}, {"measurement": "GI50", "setting": "[6]", "result": "> 100 µM (inactive)"}, {"measurement": "GI50", "setting": "[7]", "result": "54.2 µM (inactive)"}, {"measurement": "GI50", "setting": "[8]", "result": "> 100 µM (inactive)"}, {"measurement": "GI50", "setting": "[9]", "result": "> 100 µM (inactive)"}, {"measurement": "GI50", "setting": "[10]", "result": "> 100 µM (inactive)"}, {"measurement": "GI50", "setting": "[11]", "result": "29.8 µM (inactive)"}, {"measurement": "GI50", "setting": "[12]", "result": "> 100 µM (inactive)"}, {"measurement": "GI50", "setting": "[13]", "result": "> 100 µM (inactive)"}, {"measurement": "GI50", "setting": "[14]", "result": "27.9 µM (inactive)"}, {"measurement": "GI50", "setting": "[15]", "result": "57.5 µM (inactive)"}, {"measurement": "GI50", "setting": "[16]", "result": "> 100 µM (inactive)"}, {"measurement": "GI50", "setting": "[17]", "result": "46 µM (inactive)"}, {"measurement": "GI50", "setting": "[18]", "result": "> 100 µM (inactive)"}, {"measurement": "GI50", "setting": "[19]", "result": "> 100 µM (inactive)"}, {"measurement": "GI50", "setting": "[20]", "result": "> 100 µM (inactive)"}, {"measurement": "GI50", "setting": "[21]", "result": "> 100 µM (inactive)"}, {"measurement": "GI50", "setting": "[22]", "result": "17.5 µM (inactive)"}, {"measurement": "GI50", "setting": "[23]", "result": "78.5 µM (inactive)"}, {"measurement": "GI50", "setting": "[24]", "result": "> 100 µM (inactive)"}, {"measurement": "GI50", "setting": "[25]", "result": "53.2 µM (inactive)"}, {"measurement": "GI50", "setting": "[26]", "result": "> 100 µM (inactive)"}, {"measurement": "GI50", "setting": "[27]", "result": "> 100 µM (inactive)"}, {"measurement": "GI50", "setting": "[28]", "result": "> 100 µM (inactive)"}, {"measurement": "GI50", "setting": "[29]", "result": "> 100 µM (inactive)"}, {"measurement": "GI50", "setting": "[30]", "result": "> 100 µM (inactive)"}, {"measurement": "GI50", "setting": "[31]", "result": "42.4 µM (inactive)"}, {"measurement": "GI50", "setting": "[32]", "result": "> 100 µM (inactive)"}, {"measurement": "GI50", "setting": "[33]", "result": "25.7 µM (inactive)"}, {"measurement": "GI50", "setting": "[34]", "result": "> 100 µM (inactive)"}, {"measurement": "GI50", "setting": "[35]", "result": "> 100 µM (inactive)"}, {"measurement": "GI50", "setting": "[36]", "result": "> 100 µM (inactive)"}, {"measurement": "GI50", "setting": "[37]", "result": "> 100 µM (inactive)"}, {"measurement": "GI50", "setting": "[38]", "result": "> 100 µM (inactive)"}, {"measurement": "GI50", "setting": "[39]", "result": "27.1 µM (inactive)"}, {"measurement": "GI50", "setting": "[40]", "result": "65.6 µM (inactive)"}, {"measurement": "GI50", "setting": "[41]", "result": "> 100 µM (inactive)"}, {"measurement": "GI50", "setting": "[42]", "result": "> 100 µM (inactive)"}, {"measurement": "GI50", "setting": "[43]", "result": "97.7 µM (inactive)"}, {"measurement": "GI50", "setting": "[44]", "result": "85.3 µM (inactive)"}, {"measurement": "GI50", "setting": "[45]", "result": "> 100 µM (inactive)"}, {"measurement": "GI50", "setting": "[46]", "result": "> 100 µM (inactive)"}, {"measurement": "GI50", "setting": "[47]", "result": "63.5 µM (inactive)"}, {"measurement": "GI50", "setting": "[48]", "result": "46.3 µM (inactive)"}, {"measurement": "GI50", "setting": "[49]", "result": "> 100 µM (inactive)"}, {"measurement": "GI50", "setting": "[50]", "result": "> 100", "unit": "µM"}, {"measurement": "GI50", "setting": "[51]", "result": "> 100 µM (inactive)"}, {"measurement": "GI50", "setting": "[52]", "result": "> 100 µM (inactive)"}, {"measurement": "GI50", "setting": "[53]", "result": "54.5 µM (inactive)"}, {"measurement": "GI50", "setting": "[54]", "result": "78.7 µM (inactive)"}, {"measurement": "GI50", "setting": "[55]", "result": "> 100 µM (inactive)"}]}
